Laboratory results published in US20260226071A1, “2, 4-DIANILINOPYRIMIDINE-BASED AURORA-A KINASE SELECTIVE DEGRADATION INDUCING COMPOUNDS” (UPPTHERA, INC., priority 2023, published 2026).

How the values were obtained:
Aurora kinase A (AURKA) = molecular target: T1, Aurora kinase A (AURKA) (Homo sapiens, UniProt O14965); assay: Luciferase assay for AURKA in HeLa LgBit (AURKA-HiBit KI) cell line; assay type: cell-based; settings: HeLa LgBit (AURKA-HiBit KI) cells, measured after 12 hours
T1 construct: endogenous in cells; host or cells: HeLa LgBit (AURKA-HiBit KI), CRISPR/Cas9 knock-in at the endogenous AURKA locus
T1 sequence (O14965 1-403): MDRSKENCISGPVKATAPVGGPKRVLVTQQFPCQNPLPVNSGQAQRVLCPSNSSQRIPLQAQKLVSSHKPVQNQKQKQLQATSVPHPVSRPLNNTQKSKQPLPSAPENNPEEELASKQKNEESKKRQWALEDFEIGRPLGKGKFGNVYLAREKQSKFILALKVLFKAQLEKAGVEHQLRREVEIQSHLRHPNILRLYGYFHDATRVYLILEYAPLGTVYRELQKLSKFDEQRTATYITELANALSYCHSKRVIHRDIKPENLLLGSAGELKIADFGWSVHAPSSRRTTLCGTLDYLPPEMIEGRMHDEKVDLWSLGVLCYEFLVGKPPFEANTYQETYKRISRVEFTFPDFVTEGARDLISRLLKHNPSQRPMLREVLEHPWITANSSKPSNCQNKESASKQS
Outline: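 HeLa cells stably expressing LgBit, with HiBit knocked in at the C-terminus of endogenous AURKA; 3×10^4 cells seeded, 18 h, then Endurazine substrate 2 h. Compounds tested at 10 nM or 100 nM; luminescence read at 470-480 nm after 12 h as real-time read-out.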

NCI-H446 cell line = assay: Cell viability assay for NCI-H446 cell line; assay type: cell-based; settings: Homo sapiens, NCI-H446, 120 h; H446 cells, 5 days culture, EZ-Cytox; read-out: IC50 value (Level)
Outline: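 H446 cells seeded 24 h before treatment with compound in 3-fold dilutions, 1000 to 0.15 nM, then cultured 5 days at 37 °C, 5% CO2 in RPMI 1640/10% FBS. Viability read with EZ-Cytox (4 h) as absorbance at 450 nm.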

Row | luminescence value (Level) (Aurora kinase A (AURKA); 10 nM compound) | luminescence value (Level) (Aurora kinase A (AURKA); 100 nM compound) | Compound | IC50 (NCI-H446 cell line) [nM]
1 | A (A is <0.3) | A (A is <0.2) | O=C1CCC(c2cc(F)c(N3CCN(CCC4CCN(NC(=O)c5ccc(Nc6ncc(F)c(Nc7ccc(NC(=O)c8ccccc8F)cc7)n6)cc5F)CC4)CC3)cc2F)C(=O)N1 (stereo not drawn) [Compound 112, N-[4-[2-[4-[4-(2,6-dioxo-3-piperidyl)-2,5-difluoro-phenyl]piperazin-1-yl]ethyl]-1-piperidyl]-2-fluoro-4-[[5-fluoro-4-[4-[(2-fluorobenzoyl)amino]anilino]pyrimidin-2-yl]amino]benzamide] | < 50
2 | A (A is <0.3) | A (A is <0.2) | C[C@H]1CN(c2ccc(C3CCC(=O)NC3=O)cc2)CCN1CCC1CCN(NC(=O)c2ccc(Nc3ncc(F)c(Nc4ccc(C(=O)Nc5ccccc5Cl)cc4)n3)cc2)CC1 (stereo partly drawn) [Compound 113, N-(2-chlorophenyl)-4-((2-((4-((4-(2-((2S)-4-(4-(2,6-dioxopiperidin-3-yl)phenyl)-2-methylpiperazin-1-yl)ethyl)piperidin-1-yl)carbamoyl)phenyl)amino)-5-fluoropyrimidin-4-yl)amino)benzamide] | < 50
3 | A (A is <0.3) | A (A is <0.2) | C[C@H]1CN(CCC2CCN(NC(=O)c3ccc(Nc4ncc(F)c(Nc5ccc(C(=O)Nc6ccccc6Cl)cc5)n4)cc3)CC2)CCN1c1ccc(C2CCC(=O)NC2=O)cc1 (stereo partly drawn) [Compound 114, N-(2-chlorophenyl)-4-((2-((4-((4-(2-((3S)-4-(4-(2,6-dioxopiperidin-3-yl)phenyl)-3-methylpiperazin-1-yl)ethyl)piperidin-1-yl)carbamoyl)phenyl)amino)-5-fluoropyrimidin-4-yl)amino)benzamide] | < 50
4 | A (A is <0.3) | A (A is <0.2) | C[C@@H]1CN(CCC2CCN(NC(=O)c3ccc(Nc4ncc(F)c(Nc5ccc(C(=O)Nc6ccccc6Cl)cc5)n4)cc3)CC2)CCN1c1ccc(C2CCC(=O)NC2=O)cc1 (stereo partly drawn) [Compound 116, N-(2-chlorophenyl)-4-((2-((4-((4-(2-((3R)-4-(4-(2,6-dioxopiperidin-3-yl)phenyl)-3-methylpiperazin-1-yl)ethyl)piperidin-1-yl)carbamoyl)phenyl)amino)-5-fluoropyrimidin-4-yl)amino)benzamide] | < 50
5 | A (A is <0.3) | A (A is <0.2) | COc1cc(N2CCN(CCC3CCN(NC(=O)c4ccc(Nc5ncc(F)c(Nc6ccc(C(=O)Nc7ccccc7Cl)cc6)n5)cc4)CC3)CC2)c(F)cc1NC1CCC(=O)NC1=O (stereo not drawn) [Compound 117, N-(2-chlorophenyl)-4-((2-((4-((4-(2-(4-(4-((2,6-dioxopiperidin-3-yl)amino)-2-fluoro-5-methoxyphenyl)piperazin-1-yl)ethyl)piperidin-1-yl)carbamoyl)phenyl)amino)-5-fluoropyrimidin-4-yl)amino)benzamide] | < 50
6 | B (B is 0.3 to 0.5) | A (A is <0.2) | COc1cc(N2CCN(CCC3CCN(NC(=O)c4ccc(Nc5ncc(F)c(Nc6ccc(C(=O)Nc7ccccc7Cl)cc6)n5)cc4)CC3)CC2)c(F)cc1C1CCC(=O)NC1=O (stereo not drawn) [Compound 118, N-(2-chlorophenyl)-4-((2-((4-((4-(2-(4-(4-(2,6-dioxopiperidin-3-yl)-2-fluoro-5-methoxyphenyl)piperazin-1-yl)ethyl)piperidin-1-yl)carbamoyl)phenyl)amino)-5-fluoropyrimidin-4-yl)amino)benzamide] | 50 to 100
